Laboratory results reported in ChEMBL document CHEMBL5727000, “Carboxamide or sulfonamide substituted thiazoles and related derivatives as modulators for the orphan nuclear receptor ROR[γ]” (2019).
Values joined by “and” are separate entries in the source; they are usually repeats but may differ in a detail not shown here. Identical values can stand only once.

Test: RORgamma Gal4 Reporter Gene Assay (REN): Cells were incubated for additional 16 h before renilla (REN) luciferase activities were measured sequentially in the same cell extract using a Dual-Light-Luciferase-Assay system (Dyer et al., Anal. Biochem. 2000, 282:158). All experiments were done at least in triplicates.

## CC(C)(C)NS(=O)(=O)c1ccc(-c2sc(C(=O)N[C@H]3C[C@H](C(=O)O)C3)nc2CC2CCCCC2)c(C(F)F)c1Cl
  IC50: 3.16 nM

## CC(C)(C)NS(=O)(=O)c1ccc(-c2sc(C(=O)NC3CCS(=O)(=O)CC3)nc2CC2CCCCC2)c2ccncc12
  IC50: 12.6 nM

## CC(C)(C)NS(=O)(=O)c1ccc(-c2sc(C(=O)NCC3(O)CCOCC3)nc2CC2CCCCC2)cc1C(C)(C)O
  IC50: 20 nM

## CC(C)(C)NS(=O)(=O)c1ccc(-c2sc(C(=O)NN3CCS(=O)(=O)CC3)nc2CC2CCCCC2)c(Cl)c1Cl
  IC50: 2 nM

## CC(C)(C)NS(=O)(=O)c1ccc(-c2sc(C(=O)N[C@H]3C[C@H](C(=O)O)C3)nc2CC2CCCCC2)c2c1CCC2
  IC50: 3.16 nM

## CC(C)(O)c1cc(-c2sc(C(=O)N[C@H]3C[C@H](C(=O)O)C3)nc2CC2CCCCC2)cc(C2(C)CC2)c1
  IC50: 79.4 nM

## CC(C)(C)NS(=O)(=O)c1ccc(-c2sc(C(=O)NC3CCOCC3)nc2CC2CCCCC2)cc1C(C)(C)O
  IC50: 20 nM

## CC(C)(C)NS(=O)(=O)c1ccc(-c2sc(C(=O)NN3CCOCC3)nc2CC2CCCCC2)c(Cl)c1Cl
  IC50: 2 nM

## CC(C)(C)NS(=O)(=O)c1ccc(-c2oc(C(=O)N[C@H]3C[C@H](C(=O)NS(C)(=O)=O)C3)nc2CC2CCCCC2)c2ccccc12
  IC50: 200 nM

## CN(C(=O)c1nc(CC2CCCCC2)c(-c2cc(C(C)(C)C)cc(C3(C)CC3)c2)s1)C1CCOCC1
  IC50: 126 nM

## CC(C)(C)NS(=O)(=O)c1ccc(-c2sc(S(N)(=O)=O)nc2CC2CCCCC2)cc1C(C)(C)C
  IC50: 251 nM

## CC(C)(C)c1cc(-c2sc(C(=O)N[C@H]3C[C@H](C(=O)O)C3)nc2CC2CCCCC2)cc(C(C)(F)F)c1
  IC50: 39.8 nM

## CC(C)(C)c1cc(-c2sc(S(N)(=O)=O)nc2CC2CCCCC2)cc(C(C)(C)C)c1
  IC50: 398 nM

## CC(C)(C)NS(=O)(=O)c1ccc(-c2sc(C(=O)NC3CCS(=O)(=O)CC3)nc2-c2cccc(Cl)c2)c2ccccc12
  IC50: 6.31 nM

## CC(C)(C)c1cc(-c2nc(C(N)=O)sc2CC2CCCCC2)cc(C(C)(C)C)c1
  IC50: 1580 nM

## CC(C)(C)NS(=O)(=O)c1ccc(-c2sc(C(=O)NC3CSC3)nc2CC2CCCCC2)c(Cl)c1Cl
  IC50: 2 nM

## CC(C)(O)c1cc(-c2sc(C(=O)N[C@H]3C[C@@H](C(=O)O)C3)nc2CC2CCCCC2)cc(C2(C)CC2)c1
  IC50: 63.1 nM

## COC(c1nc(C(=O)NC2CCOCC2)sc1-c1cc(C(C)(C)C)cc(C2(C)CC2)c1)C1CCCCC1 (stereo not given)
  IC50: 79.4 nM

## CC(C)(C)NS(=O)(=O)c1ccc(-c2sc(C(=O)NCC3(C(=O)O)CCOCC3)nc2CC2CCCCC2)c(Cl)c1Cl
  IC50: 39.8 nM

## CC(C)(C)NS(=O)(=O)c1ccc(-c2oc(C(=O)NC3CCOCC3)nc2CC2CCCCC2)cc1C(C)(C)C
  IC50: 501 nM

## CC1CCN(C(=O)c2nc(C(=O)N3CC4(CCOCC4)C3)sc2-c2ccc(S(=O)(=O)NC(C)(C)C)c3ccccc23)CC1
  IC50: 63.1 nM

## CC(C)(C)NS(=O)(=O)c1ccc(-c2sc(C(=O)NCCN3CCOCC3)nc2CC2CCCCC2)cc1C(C)(C)O
  IC50: 200 nM

## CCC(C)(C)NS(=O)(=O)c1ccc(-c2sc(C(=O)NCc3ncc(S(C)(=O)=O)s3)nc2C(=O)N2CCC(C)CC2)c(Cl)c1C
  IC50: 20 nM

## CC(C)(C)NS(=O)(=O)c1ccc(-c2sc(C(=O)N[C@H]3C[C@H](C(=O)O)C3)nc2C2CCCCC2)c2ccccc12
  IC50: 10 nM

## CC1CC(C)CN(C(=O)c2nc(C(=O)NCC(C)(C)O)sc2-c2ccc(S(=O)(=O)NC(C)(C)C)c3ccccc23)C1 (stereo not given)
  IC50: 126 nM

## CC1CCN(C(=O)c2nc(C(=O)N3CC4(CCS(=O)(=O)CC4)C3)sc2-c2ccc(S(=O)(=O)NC(C)(C)C)c3ccccc23)CC1
  IC50: 251 nM

## CC(C)(C)NS(=O)(=O)c1ccc(-c2sc(C(=O)NC3CCS(=O)(=O)CC3)nc2CC2CCCCC2)c(Cl)c1Cl
  IC50: 2 nM

## CC(C)(C)NS(=O)(=O)c1ccc(-c2sc(C(=O)NC3CCS(=O)(=O)CC3)nc2CC2CCCCC2)c2ccccc12
  IC50: 1 nM

## CC(C)(C)NS(=O)(=O)c1ccc(-c2sc(C(=O)NC3CSC3)nc2CC2CCCCC2)c2ccccc12
  IC50: 2 nM

## O=C(c1nc(CC2CCCCC2)c(-c2ccc(S(=O)(=O)NC3CS(=O)(=O)C3)c3ccccc23)s1)N1CC2(CCS(=O)(=O)CC2)C1
  IC50: 398 nM

## CC(C)(C)NS(=O)(=O)c1ccc(-c2sc(C(=O)N[C@H]3C[C@H](C(=O)O)C3)nc2CC2CCCCC2)cc1C(F)(F)F
  IC50: 10 nM

## C[C@H](NS(=O)(=O)c1ccc(-c2sc(C(=O)NCC(C)(C)O)nc2CC2CCC2)c(Cl)c1)C(F)(F)F
  IC50: 12.6 nM

## CC1(NC(=O)c2cc(-c3sc(C(=O)NC4CCS(=O)(=O)CC4)nc3CC3CCCCC3)cc(C3(C)CC3)c2)COC1
  IC50: 12.6 nM

## Cc1c(C(=O)NC(C)(C)C)cc(-c2sc(C(=O)N[C@H]3C[C@H](C(=O)O)C3)nc2CC2CCCCC2)cc1C1(C)CC1
  IC50: 158 nM

## CC(C)(O)CNC(=O)c1nc(CC2CCCCC2)c(-c2ncc(S(=O)(=O)NC(C)(C)C)c3ccccc23)s1
  IC50: 20 nM

## CC(C)(C)NS(=O)(=O)c1ccc(-c2sc(C(=O)NC3CCS(=O)(=O)CC3)nc2C2CCCCC2)c2ccccc12
  IC50: 6.31 nM

## CCC1CCN(C(=O)c2nc(C(=O)NCC(C)(C)O)sc2-c2ccc(S(=O)(=O)NC(C)(C)C)c3ccccc23)CC1
  IC50: 31.6 nM

## C[C@H](NC(=O)c1cc(-c2sc(C(=O)NCC(C)(C)c3nnn[nH]3)nc2CC2CCCCC2)cc(C2(C)CC2)c1)C(F)(F)F
  IC50: 31.6 nM

## CC(C)(C)NS(=O)(=O)c1ccc(-c2sc(C(=O)NC3C[S+]([O-])C3)nc2CC2CCCCC2)cc1C(C)(C)O (stereo not given)
  IC50: 10 nM and 50.1 nM

## COC(c1nc(C(=O)N[C@H]2C[C@H](C(=O)O)C2)sc1-c1cc(C(C)(C)C)cc(C2(C)CC2)c1)C1CCCCC1 (stereo not given in full)
  IC50: 100 nM

## CC1CCCCN1C(=O)c1nc(C(=O)NCC(C)(C)O)sc1-c1ccc(S(=O)(=O)NC(C)(C)C)c2ccccc12 (stereo not given)
  IC50: 50.1 nM

## CC(C)(C)NS(=O)(=O)c1ccc(-c2sc(C(=O)NC3CCS(=O)(=O)CC3)nc2CC2CCC2)c2ccccc12
  IC50: 3.98 nM

## CC(C)(C)NS(=O)(=O)c1ccc(-c2sc(C(=O)N[C@H]3C[C@H](C(=O)O)C3)nc2CC2CCCCC2)cc1C(C)(C)O
  IC50: 10 nM

## CC1(c2cc(-c3sc(C(=O)N[C@H]4C[C@H](C(=O)O)C4)nc3CC3CCCCC3)cc(C(F)(F)F)c2)CC1
  IC50: 79.4 nM

## COC(c1nc(C(=O)NC2CCOCC2)sc1-c1ccc(S(=O)(=O)NC(C)(C)C)c(C(C)(C)C)c1)C1CCCCC1 (stereo not given)
  IC50: 200 nM

## CNS(=O)(=O)c1ccc(-c2sc(C(=O)N3CC4(CCS(=O)(=O)CC4)C3)nc2CC2CCCCC2)c2ccccc12
  IC50: 251 nM

## CC(C)(C)c1cc(-c2cc(C(N)=O)ccc2CC2CCCCC2)cc(C(C)(C)C)c1
  IC50: 501 nM

## CC(C)(C)NS(=O)(=O)c1ccc(-c2sc(C(=O)NC34CCC(C(=O)O)(CC3)CC4)nc2CC2CCCCC2)c2ccccc12
  IC50: 6.31 nM

## CC(C)(C)NS(=O)(=O)c1ccc(-c2sc(C(=O)NCCC(C)(C)C(=O)O)nc2CC2CCCCC2)c(Cl)c1Cl
  IC50: 6.31 nM

## CC(C)COc1cc(-c2sc(C(=O)N[C@H]3C[C@H](C(=O)O)C3)nc2CC2CCCCC2)cc(C(C)(C)C)n1
  IC50: 39.8 nM

## CC(C)(C)c1cc(-c2oc(C(N)=O)nc2CC2CCCCC2)cc(C(C)(C)C)c1
  IC50: 1580 nM

## CC(C)(C)NS(=O)(=O)c1ccc(-c2oc(C(=O)NC34CCC(C(=O)O)(CC3)CC4)nc2CC2CCCCC2)c2ccccc12
  IC50: 12.6 nM

## CC(C)(CCNC(=O)c1nc(CC2CCCCC2)c(-c2cc(C(C)(C)C)cc(C3(C)CC3)c2)s1)C(=O)O
  IC50: 100 nM

## CC(C)(C)c1cc(-c2ccc(C(N)=O)cc2CC2CCCCC2)cc(C(C)(C)C)c1
  IC50: 631 nM

## CC(C)(C)NS(=O)(=O)c1ccc(-c2nc(C(=O)NC3CCS(=O)(=O)CC3)sc2CC2CCCCC2)c2ccccc12
  IC50: 1 nM

## CCCc1nc(C(=O)NCC(C)(C)O)sc1-c1ccc(S(=O)(=O)N[C@@H](C)C(F)(F)F)c2ccccc12
  IC50: 12.6 nM

## CC(C)(CO)NS(=O)(=O)c1ccc(-c2sc(C(=O)N3CC4(CCS(=O)(=O)CC4)C3)nc2CC2CCCCC2)c2ccccc12
  IC50: 79.4 nM

## CC(C)(C)NS(=O)(=O)c1ccc(-c2sc(C(=O)NC3COC3)nc2CC2CCCCC2)c(Cl)c1Cl
  IC50: 3.16 nM

## CC(C)(C)c1cc(-c2nc(C(=O)NC3CCS(=O)(=O)CC3)oc2CC2CCCCC2)cc(C2(C)CC2)c1
  IC50: 251 nM

## CC(O)c1c(S(=O)(=O)NC(C)(C)C)ccc(-c2sc(C(=O)N3CC4(CCS(=O)(=O)CC4)C3)nc2CC2CCCCC2)c1Cl (stereo not given)
  IC50: 200 nM

## CC(C)(C)NS(=O)(=O)c1ccc(-c2sc(C(=O)NC3CCC(C(=O)O)C3)nc2CC2CCCCC2)c2ccccc12 (stereo not given)
  IC50: 3.98 nM

## CC(C)(C)NS(=O)(=O)c1ccc(-c2sc(C(=O)NC3CCS(=O)(=O)CC3)nc2CC2CC2)c(Cl)c1Cl
  IC50: 31.6 nM

## CC(C)(CNC(=O)c1nc(CC2CCCCC2)c(-c2cc(C(C)(C)C)cc(C3(C)CC3)c2)o1)C(=O)O
  IC50: 251 nM

## C[C@H](NS(=O)(=O)c1ccc(-c2sc(C(=O)NCC(C)(C)O)nc2CC2CCC2)c(C(F)(F)F)c1)C(F)(F)F
  IC50: 20 nM

## CC(C)(C#N)CNC(=O)c1nc(CC2CCCCC2)c(-c2ccc(S(=O)(=O)NC(C)(C)C)c3ccccc23)s1
  IC50: 2 nM

## CC1CCN(C(=O)c2nc(C(=O)NCC(C)(C)O)sc2-c2ccc(S(=O)(=O)N[C@@H](C)C(F)(F)F)c3ccccc23)CC1
  IC50: 20 nM

## COCC(C)(C)NS(=O)(=O)c1ccc(-c2sc(C(=O)N3CC4(CCS(=O)(=O)CC4)C3)nc2CC2CCCCC2)c2ccccc12
  IC50: 39.8 nM

## CC(C)(C)NS(=O)(=O)c1ccc(-c2sc(C(=O)N3CC(C(C)(C)C(=O)O)C3)nc2CC2CCCCC2)c(Cl)c1Cl
  IC50: 126 nM

## O=C(NC1CCS(=O)(=O)CC1)c1nc(CC2CCCCC2)c(-c2ccc(N3CCOCC3)c3ccccc23)s1
  IC50: 126 nM

## CC(C)(C)NS(=O)(=O)c1ccc(-c2nc(C(=O)NC34CCC(C(=O)O)(CC3)CC4)oc2CC2CCCCC2)c2ccccc12
  IC50: 39.8 nM

## CC(C)(C)NS(=O)(=O)c1ccc(-c2sc(C(=O)NCCC(C)(C)C(=O)O)nc2CC2CCCCC2)cc1C(F)(F)F
  IC50: 39.8 nM

## CC(C)(C)NS(=O)(=O)c1ccc(-c2sc(C(=O)NC3CC3)nc2CC2CCCCC2)c(Cl)c1Cl
  IC50: 10 nM

## CC(C)(C)c1cc(-c2oc(C(=O)NC3CCOCC3)nc2CC2CCCCC2)cc(C2(C)CC2)c1
  IC50: 126 nM

## CCC(C)(C)NS(=O)(=O)c1ccc(-c2sc(C(=O)NCC(C)(C)O)nc2C(=O)N2CCC(C)CC2)c(Cl)c1C
  IC50: 3.16 nM

## CC(C)(C)NS(=O)(=O)c1ccc(-c2sc(C(=O)NC3CS(=O)(=O)C3)nc2CC2CCCCC2)cc1C(C)(C)O
  IC50: 12.6 nM
